Data reported in patent US9181277B2, “Aminoquinazoline derivatives and their salts and methods of use” (SUNSHINE LAKE PHARMA CO., LTD., priority 2011, dated 2015).

The compounds below were run against EGFR Kinase (Homo sapiens, UniProt P00533) (assay: EGFR inhibitory activity test (HTRF kinEASE STK S1 kinase assay)). Conditions: replicate wells, read-out: IC50(nM), Inhibitory Activity of Compounds on EGFR Kinase.
Assay type: biochemical
Experimental: In a pilot study, the compounds disclosed herein were screened for their EGFR inhibitory activity. The Cisbio Research Product HTRF kinEASE STK S1 kinase assay/inhibitor screening Kit, can detect the generation of the phosphorylated substrate. Kinase, biotinylated substrate and ATP were first added into buffer solution, and the phosphorylated biotinylated substrates were formed by enzyme reaction. Then, to the above solution was added europium-labeled anti-phospho-site specific antibodies and XL665-labeled avidin. The Specific combinations of antibody with antigen, and biotin with avidin, bring the europium and XL665 closer together and resonance energy transferred. The signals at 620 nm and 665 nm were detected, and the activity of the kinase was evaluated by the ratio of the two signals value.

EGFR Kinase, sequence (P00533 25-1210): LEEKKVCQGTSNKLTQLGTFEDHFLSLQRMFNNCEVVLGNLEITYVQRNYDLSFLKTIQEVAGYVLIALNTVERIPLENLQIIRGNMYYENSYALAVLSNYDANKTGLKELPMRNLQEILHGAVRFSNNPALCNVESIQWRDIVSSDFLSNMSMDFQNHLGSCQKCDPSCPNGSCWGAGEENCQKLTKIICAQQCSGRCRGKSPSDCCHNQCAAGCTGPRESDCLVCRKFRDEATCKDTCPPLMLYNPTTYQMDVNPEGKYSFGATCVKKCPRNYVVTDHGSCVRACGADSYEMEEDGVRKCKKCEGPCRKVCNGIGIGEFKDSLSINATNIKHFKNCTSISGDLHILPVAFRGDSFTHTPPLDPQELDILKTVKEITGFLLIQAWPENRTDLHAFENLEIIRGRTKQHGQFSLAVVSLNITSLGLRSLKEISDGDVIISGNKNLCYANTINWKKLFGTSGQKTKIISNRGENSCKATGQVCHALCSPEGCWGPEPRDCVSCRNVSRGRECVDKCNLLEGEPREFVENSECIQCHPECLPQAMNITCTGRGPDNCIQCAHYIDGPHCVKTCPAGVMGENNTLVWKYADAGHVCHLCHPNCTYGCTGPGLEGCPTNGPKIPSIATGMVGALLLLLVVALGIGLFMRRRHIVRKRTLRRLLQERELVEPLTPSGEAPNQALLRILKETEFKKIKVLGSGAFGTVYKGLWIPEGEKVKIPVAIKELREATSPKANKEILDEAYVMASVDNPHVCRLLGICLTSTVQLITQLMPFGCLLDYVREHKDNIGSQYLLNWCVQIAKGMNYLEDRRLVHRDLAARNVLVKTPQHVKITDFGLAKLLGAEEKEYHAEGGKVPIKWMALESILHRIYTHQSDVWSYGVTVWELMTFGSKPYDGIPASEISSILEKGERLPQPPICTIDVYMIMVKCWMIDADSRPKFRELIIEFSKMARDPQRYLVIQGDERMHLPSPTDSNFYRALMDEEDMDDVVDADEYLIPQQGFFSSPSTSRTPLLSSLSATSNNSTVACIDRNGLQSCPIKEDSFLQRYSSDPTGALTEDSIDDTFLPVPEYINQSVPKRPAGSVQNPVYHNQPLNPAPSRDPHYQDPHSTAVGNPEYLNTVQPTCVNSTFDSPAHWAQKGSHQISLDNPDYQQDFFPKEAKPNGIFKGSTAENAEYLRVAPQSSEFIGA

First: COc1cc2ncnc(Nc3ccc(F)c(Cl)c3)c2cc1OCCCN1CCn2c(nnc2C(F)(F)F)C1 [Example 1, N-(3-chloro-4-fluorophenyl)-7-methoxy-6-(3-(3-(trifluoromethyl)-5,6-dihydro-[1,2,4]triazolo[4,3-a]pyrazin-7(8H)-yl)propoxy)quinazolin-4-amine]
Second: CCc1nnc2n1CCN(CCCOc1cc3c(Nc4ccc(F)c(Cl)c4)ncnc3cc1OC)C2 [Example 2, N-(3-chloro-4-fluorophenyl)-6-(3-(3-ethyl-5,6-dihydro-[1,2,4]triazolo[4,3-a]pyrazin-7(8H)-yl)propoxy)-7-methoxyquinazolin-4-amine]
The IC50 of the first is lower: 1 to 10 nM for the first, greater than 10 nM for the second. The first is the more potent here.

First: COc1cc2ncnc(Nc3ccc(F)c(Cl)c3)c2cc1OCCCN1CCn2cnnc2C1 [Example 3, N-(3-chloro-4-fluorophenyl)-6-(3-(5,6-dihydro-[1,2,4]triazolo[4,3-a]pyrazin-7(8H)-yl)propoxy)-7-methoxyquinazolin-4-amine]
Second: COc1cc2ncnc(Nc3ccc(F)c(Cl)c3)c2cc1OCCCN1CCc2noc(C)c2C1 [Example 24, N-(3-chloro-4-fluorophenyl)-7-methoxy-6-(3-(3-methyl-6,7-dihydroisoxazolo[4,3-c]pyridin-5(4H)-yl)propoxy)quinazolin-4-amine]
The IC50 of the first is higher: 0.101 to 1 nM for the first, 0.001 to 0.1 nM for the second.

First: COc1cc2ncnc(Nc3ccc(F)c(Cl)c3)c2cc1OCCCN1C[C@@H]2C[C@]2(O)C1 [Example 4, (1R,5S)-3-(3-((4-((3-chloro-4-fluorophenyl)amino)-7-methoxyquinazolin-6-yl)oxy)propyl)-3-azabicyclo[3.1.0]hexan-1-ol]
Second: COc1cc2ncnc(Nc3ccc(F)c(Cl)c3)c2cc1OCCCN1C[C@@H]2C[C@]2(N(C)C)C1 [Example 5]
The IC50 of the first is lower: 0.001 to 0.1 nM for the first, 0.101 to 1 nM for the second.

Compared with `COc1cc2ncnc(Nc3ccc(F)c(Cl)c3)c2cc1OCCCN1CC2OCCOC2C1` (centres unmarked) [Example 6, N-(3-chloro-4-fluorophenyl)-7-methoxy-6-(3-(tetrahydro-2H-[1,4]dioxino[2,3-c]pyrrol-6(3H)-yl)propoxy)quinazolin-4-amine], `C#Cc1cc(Nc2ncnc3cc(OC)c(OCCCN4CC5OCCOC5C4)cc23)ccc1F` (centres unmarked) [Example 9, N-(3-ethynyl-4-fluorophenyl)-7-methoxy-6-(3-(tetrahydro-2H-[1,4]dioxino[2,3-c]pyrrol-6(3H)-yl)propoxy)quinazolin-4-amine] is higher in IC50: 0.001 to 0.1 nM for the first, 1 to 10 nM for the second.

First: COc1cc2ncnc(Nc3ccc(F)cc3)c2cc1OCCCN1CC2OCCOC2C1 (centres unmarked) [Example 7, N-(4-fluorophenyl)-7-methoxy-6-(3-(tetrahydro-2H-[1,4]dioxino[2,3-c]pyrrol-6(3H)-yl)propoxy) quinazolin-4-amine]
Second: C#Cc1cccc(Nc2ncnc3cc(OC)c(OCCCN4CC5OCCOC5C4)cc23)c1 (centres unmarked) [Example 8, N-(3-ethynylphenyl)-7-methoxy-6-(3-(tetrahydro-2H-[1,4]dioxino[2,3-c]pyrrol-6(3H)-yl)propoxy)quinazolin-4-amine]
The IC50 of the first is higher: 1 to 10 nM for the first, 0.001 to 0.1 nM for the second. The second is the more potent here.

First: COc1cc2ncnc(Nc3ccc(Br)cc3F)c2cc1OCCCN1CC2OCCOC2C1 (centres unmarked) [Example 10, N-(4-bromo-2-fluorophenyl)-7-methoxy-6-(3-(tetrahydro-2H-[1,4]dioxino[2,3-c]pyrrol-6(3H)-yl)propoxy)quinazolin-4-amine]
Second: COc1cc2ncnc(Nc3ccc(F)c(Cl)c3)c2cc1OCCCN1CC2OCCN(C)C2C1 (centres unmarked) [Example 15, N-(3-chloro-4-fluorophenyl)-7-methoxy-6-(3-(4-methylhexahydropyrrolo[3,4-b][1,4]oxazin-6(2H)-yl)propoxy)quinazolin-4-amine]
The IC50 of the first is higher: greater than 10 nM for the first, 0.101 to 1 nM for the second.

`COc1cc2ncnc(Nc3ccc(F)c(Cl)c3)c2cc1OCCCN1CC2CNCC2C1` (centres unmarked) [Example 11, N-(3-chloro-4-fluorophenyl)-6-(3-(hexahydropyrrolo[3,4-c]pyrrol-2(1H)-yl)propoxy)-7-methoxyquinazolin-4-amine] and `COc1cc2ncnc(Nc3ccc(F)c(Cl)c3)c2cc1OCCCN1CC2CCCC2C1` (centres unmarked) [Example 21, N-(3-chloro-4-fluorophenyl)-6-(3-(hexahydrocyclopenta[c]pyrrol-2(1H)-yl)propoxy)-7-methoxyquinazolin-4-amine] fall in the same range of IC50: 0.001 to 0.1 nM for the first, 0.001 to 0.1 nM for the second.

Compared with `COc1cc2ncnc(Nc3ccc(F)c(Cl)c3)c2cc1OCCCN1CC2CN(C)CC2C1` (centres unmarked) [Example 12, N-(3-chloro-4-fluorophenyl)-7-methoxy-6-(3-(5-methylhexahydropyrrolo[3,4-c]pyrrol-2(1H)-yl)propoxy)quinazolin-4-amine], `COc1cc2ncnc(Nc3ccc(F)c(Cl)c3)c2cc1OCCCN1CC2COCC2C1` (centres unmarked) [Example 22, N-(3-chloro-4-fluorophenyl)-7-methoxy-6-(3-(tetrahydro-1H-furo[3,4-c]pyrrol-5(3H)-yl)propoxy) quinazolin-4-amine] is lower in IC50: 0.101 to 1 nM for the first, 0.001 to 0.1 nM for the second. The second is the more potent here.

`COc1cc2ncnc(Nc3ccc(F)c(Cl)c3)c2cc1OCCCN1CCC2CNCC21` (centres unmarked) [Example 13, N-(3-chloro-4-fluorophenyl)-6-(3-(hexahydropyrrolo[3,4-b]pyrrol-1(2H)-yl)propoxy)-7-methoxyquinazolin-4-amine] and `COc1cc2ncnc(Nc3ccc(F)c(Cl)c3)c2cc1OCCCN1CCCC2CNCC21` (centres unmarked) [Example 26, N-(3-chloro-4-fluorophenyl)-7-methoxy-6-(3-(octahydro-1H-pyrrolo[3,4-b]pyridin-1-yl)propoxy) quinazolin-4-amine] fall in the same range of IC50: 0.001 to 0.1 nM for the first, 0.001 to 0.1 nM for the second.

Compared with `COc1cc2ncnc(Nc3ccc(F)c(Cl)c3)c2cc1OCCCN1CCC2CN(C(C)=O)CC21` (centres unmarked) [Example 14, 1-(1-(3-((4-((3-chloro-4-fluorophenyl)amino)-7-methoxyquinazolin-6-yl)oxy)propyl)hexahydropyrrolo[3,4-b]pyrrol-5(1H)-yl)ethanone], `COc1cc2ncnc(Nc3ccc(F)c(Cl)c3)c2cc1OCCCN1CCCC2CN(C)CC21` (centres unmarked) [Example 27, N-(3-chloro-4-fluorophenyl)-7-methoxy-6-(3-(6-methyloctahydro-1H-pyrrolo[3,4-b]pyridin-1-yl)propoxy)quinazolin-4-amine] is lower in IC50: 1 to 10 nM for the first, 0.001 to 0.1 nM for the second. The second is the more potent here.

First: COc1cc2ncnc(Nc3ccc(F)c(Cl)c3)c2cc1OCCCN1CC2OCCN(Cc3ccccc3)C2C1 (centres unmarked) [Example 16, 6-(3-(4-benzylhexahydropyrrolo[3,4-b][1,4]oxazin-6(2H)-yl)propoxy)-N-(3-chloro-4-fluorophenyl)-7-methoxyquinazolin-4-amine]
Second: COc1cc2ncnc(Nc3ccc(F)c(Cl)c3)c2cc1OCCCN1CC2CCCN(C)C2C1 (centres unmarked) [Example 28, N-(3-chloro-4-fluorophenyl)-7-methoxy-6-(3-(1-methylhexahydro-1H-pyrrolo[3,4-b]pyridin-6(2H)-yl)propoxy)quinazolin-4-amine]
The IC50 of the first is higher: 1 to 10 nM for the first, 0.001 to 0.1 nM for the second. The second is the more potent here.

`COc1cc2ncnc(Nc3ccc(F)c(Cl)c3)c2cc1OCCCN1CCC2CCNC2C1` (centres unmarked) [Example 17, N-(3-chloro-4-fluorophenyl)-6-(3-(hexahydro-1H-pyrrolo[2,3-c]pyridin-6(2H)-yl)propoxy)-7-methoxyquinazolin-4-amine] and `COc1cc2ncnc(Nc3ccc(F)c(Cl)c3)c2cc1OCCCN1CCC2NCCC2C1` (centres unmarked) [Example 19, N-(3-chloro-4-fluorophenyl)-6-(3-(hexahydro-1H-pyrrolo[3,2-c]pyridin-5(6H)-yl)propoxy)-7-methoxyquinazolin-4-amine] fall in the same range of IC50: 0.001 to 0.1 nM for the first, 0.001 to 0.1 nM for the second.

`COc1cc2ncnc(Nc3ccc(F)c(Cl)c3)c2cc1OCCCN1CCC2CCN(C)C2C1` (centres unmarked) [Example 18, N-(3-chloro-4-fluorophenyl)-7-methoxy-6-(3-(1-methylhexahydro-1H-pyrrolo[2,3-c]pyridin-6(2H)-yl)propoxy)quinazolin-4-amine] and `COc1cc2ncnc(Nc3ccc(F)c(Cl)c3)c2cc1OCCCN1CCC2CCNCC2C1` (centres unmarked) [Example 33, N-(3-chloro-4-fluorophenyl)-7-methoxy-6-(3-(octahydro-2,7-naphthyridin-2(1H)-yl)propoxy) quinazolin-4-amine] fall in the same range of IC50: 0.001 to 0.1 nM for the first, 0.001 to 0.1 nM for the second.

Compared with `COc1cc2ncnc(Nc3ccc(F)c(Cl)c3)c2cc1OCCCN1CC2CCOC(=O)C2C1` (centres unmarked) [Example 20, 2-(3-((4-((3-chloro-4-fluorophenyl)amino)-7-methoxyquinazolin-6-yl)oxy)propyl)hexahydropyrano[3,4-c]pyrrol-4(2H)-one], `COc1cc2ncnc(Nc3ccc(F)c(Cl)c3)c2cc1OCCCN1CC2CCOCC2C1` (centres unmarked) [Example 23, N-(3-chloro-4-fluorophenyl)-6-(3-(hexahydropyrano[3,4-c]pyrrol-2(3H)-yl)propoxy)-7-methoxyquinazolin-4-amine] is higher in IC50: 0.001 to 0.1 nM for the first, 1 to 10 nM for the second.

`COc1cc2ncnc(Nc3ccc(F)c(Cl)c3)c2cc1OCCCN1CC2CCCNC2C1` (centres unmarked) [Example 25, N-(3-chloro-4-fluorophenyl)-6-(3-(hexahydro-1H-pyrrolo[3,4-b]pyridin-6(2H)-yl)propoxy)-7-methoxyquinazolin-4-amine] and `CCN1CC2CCCN(CCCOc3cc4c(Nc5ccc(F)c(Cl)c5)ncnc4cc3OC)C2C1` (centres unmarked) [Example 29, N-(3-chloro-4-fluorophenyl)-6-(3-(6-ethyloctahydro-1H-pyrrolo[3,4-b]pyridin-1-yl)propoxy)-7-methoxyquinazolin-4-amine] fall in the same range of IC50: 0.001 to 0.1 nM for the first, 0.001 to 0.1 nM for the second.

Compared with `COc1cc2ncnc(Nc3ccc(F)c(Cl)c3)c2cc1OCCCN1CCCC2OCCCC21` (centres unmarked) [Example 31, N-(3-chloro-4-fluorophenyl)-6-(3-(hexahydro-2H-pyrano[3,2-b]pyridin-5(3H)-yl)propoxy)-7-methoxyquinazolin-4-amine], `COc1cc2ncnc(Nc3ccc(F)c(Cl)c3)c2cc1OCCCN1CC2C(C1)C2N(C)C` (centres unmarked) [Example 32, N-(3-chloro-4-fluorophenyl)-6-(3-(6-(dimethylamino)-3-azabicyclo[3.1.0]hexan-3-yl)propoxy)-7-methoxyquinazolin-4-amine] is higher in IC50: 0.001 to 0.1 nM for the first, 1 to 10 nM for the second. The first is the more potent here.
